According to ChEMBL document CHEMBL5338739, “Discovery of Dual Lysine Methyltransferase G9a and EZH2 Inhibitors with In Vivo Efficacy against Malignant Rhabdoid Tumor” (J Med Chem, 2023):
Active and inactive are the calls of the source. No cut-off for these calls is given here.

Assays:
[1] = Plasma protein binding in Kunming mouse by equilibrium dialysis method; assay type: ADME, cell-free; conditions: read-out: PPB (converted)
[2] = AUC (0 to infinity) in Sprague-Dawley rat at 30 mg/kg, po administered for 24 hrs by HPLC analysis; assay type: ADME, organism-based; parameters: time 24 hrs, dose 30 mg/kg, route po; conditions: in vivo
[3] = Toxicity in BALB/c nude mouse xenografted with human RD cells assessed as effect on spleen viscera index at 10 to 20 mg/kg, ip administered for 5 consecutive days followed by 2 rest days for 3 weeks; assay type: organism-based; conditions: in vivo, 504 h, dose 10-20 mg/kg
[4] = target: Histone-lysine N-methyltransferase, H3 lysine-79 specific (Homo sapiens) (UniProt Q8TEK3); assay: Inhibition of […] (unknown origin) using SAM as substrate at 10 uM by time-resolved fluorescence assay relative to control
Sequence of Histone-lysine N-methyltransferase, H3 lysine-79 specific (Homo sapiens) (Q8TEK3 whole entry, looked up): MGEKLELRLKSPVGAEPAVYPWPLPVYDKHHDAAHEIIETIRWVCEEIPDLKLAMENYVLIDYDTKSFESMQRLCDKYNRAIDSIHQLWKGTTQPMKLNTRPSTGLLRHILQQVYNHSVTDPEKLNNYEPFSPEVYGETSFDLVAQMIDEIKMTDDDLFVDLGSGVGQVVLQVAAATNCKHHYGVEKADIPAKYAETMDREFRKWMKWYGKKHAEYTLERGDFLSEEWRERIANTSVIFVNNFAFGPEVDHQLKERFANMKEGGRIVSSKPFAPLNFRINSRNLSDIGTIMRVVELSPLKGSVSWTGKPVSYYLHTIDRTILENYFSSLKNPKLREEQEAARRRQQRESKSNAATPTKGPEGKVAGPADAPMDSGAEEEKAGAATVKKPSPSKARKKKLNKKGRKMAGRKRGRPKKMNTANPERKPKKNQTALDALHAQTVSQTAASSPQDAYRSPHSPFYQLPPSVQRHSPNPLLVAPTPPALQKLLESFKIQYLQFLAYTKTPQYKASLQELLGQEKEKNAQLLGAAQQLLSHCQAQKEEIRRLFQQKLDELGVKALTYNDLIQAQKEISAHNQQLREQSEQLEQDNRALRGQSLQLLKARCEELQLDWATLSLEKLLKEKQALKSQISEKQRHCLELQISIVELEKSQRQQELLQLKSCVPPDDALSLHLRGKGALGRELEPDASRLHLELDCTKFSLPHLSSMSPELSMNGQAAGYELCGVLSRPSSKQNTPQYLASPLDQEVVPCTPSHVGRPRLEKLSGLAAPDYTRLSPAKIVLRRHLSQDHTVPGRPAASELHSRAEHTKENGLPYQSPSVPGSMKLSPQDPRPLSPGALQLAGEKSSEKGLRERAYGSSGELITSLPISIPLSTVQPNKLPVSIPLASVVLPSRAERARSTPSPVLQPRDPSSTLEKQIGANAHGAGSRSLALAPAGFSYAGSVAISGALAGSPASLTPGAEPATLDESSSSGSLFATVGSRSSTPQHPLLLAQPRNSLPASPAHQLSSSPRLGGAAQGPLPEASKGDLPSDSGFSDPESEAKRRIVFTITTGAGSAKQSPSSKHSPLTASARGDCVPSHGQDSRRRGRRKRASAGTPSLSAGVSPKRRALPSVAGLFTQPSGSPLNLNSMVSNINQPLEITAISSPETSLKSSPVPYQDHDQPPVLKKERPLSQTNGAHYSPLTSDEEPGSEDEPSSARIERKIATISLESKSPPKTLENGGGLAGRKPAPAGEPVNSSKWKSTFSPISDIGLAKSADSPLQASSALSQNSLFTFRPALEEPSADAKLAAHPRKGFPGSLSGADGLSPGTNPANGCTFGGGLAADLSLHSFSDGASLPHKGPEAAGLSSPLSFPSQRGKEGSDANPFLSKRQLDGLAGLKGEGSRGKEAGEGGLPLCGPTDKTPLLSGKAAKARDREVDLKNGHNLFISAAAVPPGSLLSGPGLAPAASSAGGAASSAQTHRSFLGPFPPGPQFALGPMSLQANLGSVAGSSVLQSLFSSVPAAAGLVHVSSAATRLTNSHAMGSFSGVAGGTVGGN

[5] = test system: RD; assay: Antiproliferative activity against human RD cells assessed as reduction in clone formation rate at 5 uM for 1 to 2 weeks with fresh medium replacement for every 2 to 3 days by crystal violet staining based microscopic analysis; assay type: functional, cell-based; conditions: time 1-2 weeks
[6] = target: Histone-lysine N-methyltransferase SETD2 (Homo sapiens) (UniProt Q9BYW2); assay: Inhibition of SETD2 (unknown origin) using SAM as substrate at 10 uM by time-resolved fluorescence assay relative to control
Sequence of Histone-lysine N-methyltransferase SETD2 (Homo sapiens) (Q9BYW2 whole entry): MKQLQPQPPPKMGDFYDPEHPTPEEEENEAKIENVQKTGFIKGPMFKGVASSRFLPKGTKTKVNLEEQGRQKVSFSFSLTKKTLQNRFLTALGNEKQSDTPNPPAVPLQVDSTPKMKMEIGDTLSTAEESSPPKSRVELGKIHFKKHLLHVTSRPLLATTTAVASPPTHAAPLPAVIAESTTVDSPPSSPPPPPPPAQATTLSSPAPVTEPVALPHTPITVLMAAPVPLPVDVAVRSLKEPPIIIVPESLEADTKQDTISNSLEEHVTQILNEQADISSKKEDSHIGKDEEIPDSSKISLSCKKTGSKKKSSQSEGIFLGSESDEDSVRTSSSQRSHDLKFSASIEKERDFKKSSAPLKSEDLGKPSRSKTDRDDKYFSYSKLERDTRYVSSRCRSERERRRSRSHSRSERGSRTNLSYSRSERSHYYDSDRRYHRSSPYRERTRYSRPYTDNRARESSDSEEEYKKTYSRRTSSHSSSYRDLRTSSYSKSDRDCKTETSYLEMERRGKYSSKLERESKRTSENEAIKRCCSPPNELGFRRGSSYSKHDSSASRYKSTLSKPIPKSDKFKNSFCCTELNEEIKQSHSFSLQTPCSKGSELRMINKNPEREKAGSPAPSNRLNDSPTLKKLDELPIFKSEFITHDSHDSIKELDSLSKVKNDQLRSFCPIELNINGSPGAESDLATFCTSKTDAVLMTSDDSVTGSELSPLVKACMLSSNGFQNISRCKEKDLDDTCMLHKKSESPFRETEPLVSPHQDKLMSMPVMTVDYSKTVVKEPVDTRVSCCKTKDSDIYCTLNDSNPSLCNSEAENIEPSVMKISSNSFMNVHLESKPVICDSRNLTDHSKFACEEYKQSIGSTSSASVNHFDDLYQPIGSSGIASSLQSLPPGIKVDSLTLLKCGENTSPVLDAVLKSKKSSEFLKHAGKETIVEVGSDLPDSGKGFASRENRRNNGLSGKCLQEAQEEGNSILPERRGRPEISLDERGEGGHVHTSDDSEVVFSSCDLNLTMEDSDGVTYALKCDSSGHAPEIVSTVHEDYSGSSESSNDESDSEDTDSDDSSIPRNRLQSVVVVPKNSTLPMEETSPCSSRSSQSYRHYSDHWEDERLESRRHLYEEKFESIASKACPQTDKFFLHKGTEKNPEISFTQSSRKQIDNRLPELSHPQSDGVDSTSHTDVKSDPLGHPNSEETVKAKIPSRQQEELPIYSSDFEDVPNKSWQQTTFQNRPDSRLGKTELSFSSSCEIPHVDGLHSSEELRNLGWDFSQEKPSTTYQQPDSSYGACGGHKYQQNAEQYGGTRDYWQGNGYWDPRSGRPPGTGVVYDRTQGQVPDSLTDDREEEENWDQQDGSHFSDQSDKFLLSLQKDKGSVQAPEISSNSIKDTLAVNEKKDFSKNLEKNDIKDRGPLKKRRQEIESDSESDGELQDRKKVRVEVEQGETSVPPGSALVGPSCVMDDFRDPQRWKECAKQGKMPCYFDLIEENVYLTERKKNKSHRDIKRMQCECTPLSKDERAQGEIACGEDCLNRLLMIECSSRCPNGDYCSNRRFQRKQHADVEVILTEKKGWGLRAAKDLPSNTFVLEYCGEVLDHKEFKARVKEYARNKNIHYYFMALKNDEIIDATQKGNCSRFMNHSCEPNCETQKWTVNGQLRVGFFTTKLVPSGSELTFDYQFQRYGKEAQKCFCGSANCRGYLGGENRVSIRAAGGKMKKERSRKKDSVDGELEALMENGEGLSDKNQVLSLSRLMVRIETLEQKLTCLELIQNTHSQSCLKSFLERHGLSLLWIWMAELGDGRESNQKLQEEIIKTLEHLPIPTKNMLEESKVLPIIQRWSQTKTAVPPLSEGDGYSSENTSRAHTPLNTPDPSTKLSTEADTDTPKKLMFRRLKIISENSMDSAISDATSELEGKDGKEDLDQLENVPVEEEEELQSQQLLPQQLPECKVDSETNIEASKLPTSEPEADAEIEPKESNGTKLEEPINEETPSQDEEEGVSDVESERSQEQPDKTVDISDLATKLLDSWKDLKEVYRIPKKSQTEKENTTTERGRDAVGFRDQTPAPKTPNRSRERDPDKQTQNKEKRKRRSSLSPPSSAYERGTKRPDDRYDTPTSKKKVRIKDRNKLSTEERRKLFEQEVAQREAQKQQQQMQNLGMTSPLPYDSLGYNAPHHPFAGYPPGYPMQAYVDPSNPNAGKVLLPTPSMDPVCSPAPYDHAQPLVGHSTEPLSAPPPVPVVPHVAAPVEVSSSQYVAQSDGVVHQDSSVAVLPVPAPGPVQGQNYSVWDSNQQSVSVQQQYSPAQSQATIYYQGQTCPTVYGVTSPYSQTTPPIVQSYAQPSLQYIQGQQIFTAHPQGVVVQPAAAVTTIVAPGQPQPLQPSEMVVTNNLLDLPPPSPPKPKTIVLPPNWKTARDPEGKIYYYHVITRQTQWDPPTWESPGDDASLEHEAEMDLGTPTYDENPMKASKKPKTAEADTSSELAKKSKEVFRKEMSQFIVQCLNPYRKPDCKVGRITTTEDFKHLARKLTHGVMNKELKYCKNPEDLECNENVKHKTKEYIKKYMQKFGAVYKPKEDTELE

[7] = Cytotoxicity against human MCF-10A cells assessed as reduction in cell viability incubated for 72 hrs by MTT assay; assay type: toxicity, cell-based
[8] = Apparent volume of distribution in Sprague-Dawley rat at 30 mg/kg, po administered for 24 hrs by HPLC analysis; assay type: ADME, organism-based; conditions: in vivo
[9] = test system: RD; assay: Downregulation of H3K4me2 expression in human RD cells at 5 uM incubated for 6 days by immunoblotting analysis; assay type: functional, cell-based; conditions: time 6.0 day
[10] = Apparent volume of distribution in Sprague-Dawley rat at 10 mg/kg, iv administered for 12 hrs by HPLC analysis; assay type: ADME, organism-based; conditions: in vivo, read-out: Vc
[11] = AUC (0 to 24 hrs) in Sprague-Dawley rat at 10 mg/kg, iv administered for 12 hrs by HPLC analysis; assay type: ADME, organism-based; parameters: dose 10 mg/kg, time 12 hrs, route iv; conditions: in vivo
[12] = Toxicity in BALB/c nude mouse xenografted with human RD cells assessed as body weight fluctuations at 10 to 20 mg/kg, ip administered for 5 consecutive days followed by 2 rest days for 3 weeks; assay type: organism-based; conditions: in vivo, 504 h, dose 10-20 mg/kg
[13] = target: Histone-lysine N-methyltransferase EZH2 (Homo sapiens, UniProt Q15910); assay: Binding affinity to EZH2 in human RD cells assessed as decrease in pronase E mediated EZH2 hydrolyzation incubated for 1 hr by DARTS analysis; assay type: cell-based; conditions: dose 5-20 µM
Sequence of Histone-lysine N-methyltransferase EZH2 (Q15910 whole entry, looked up): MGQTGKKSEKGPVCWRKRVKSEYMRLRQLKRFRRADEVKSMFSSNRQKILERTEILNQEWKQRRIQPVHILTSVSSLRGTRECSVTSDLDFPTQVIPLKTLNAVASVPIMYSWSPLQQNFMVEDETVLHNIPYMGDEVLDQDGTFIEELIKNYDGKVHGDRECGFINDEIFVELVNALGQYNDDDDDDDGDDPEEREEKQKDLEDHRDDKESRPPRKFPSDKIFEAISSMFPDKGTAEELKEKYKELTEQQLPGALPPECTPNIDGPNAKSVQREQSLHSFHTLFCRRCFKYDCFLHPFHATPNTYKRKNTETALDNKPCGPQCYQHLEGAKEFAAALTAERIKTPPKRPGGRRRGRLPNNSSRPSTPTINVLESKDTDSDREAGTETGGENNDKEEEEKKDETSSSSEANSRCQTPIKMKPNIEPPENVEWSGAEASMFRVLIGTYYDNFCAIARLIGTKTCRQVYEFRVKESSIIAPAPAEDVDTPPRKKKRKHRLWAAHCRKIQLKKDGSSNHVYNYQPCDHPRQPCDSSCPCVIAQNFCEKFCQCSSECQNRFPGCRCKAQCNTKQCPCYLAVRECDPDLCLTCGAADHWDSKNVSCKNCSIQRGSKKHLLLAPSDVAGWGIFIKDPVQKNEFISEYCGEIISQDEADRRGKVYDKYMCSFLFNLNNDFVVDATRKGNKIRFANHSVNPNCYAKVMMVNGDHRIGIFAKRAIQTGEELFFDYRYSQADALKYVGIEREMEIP

[14] = Toxicity in BALB/c nude mouse xenografted with human RD cells assessed as effect on liver viscera index at 10 to 20 mg/kg, ip administered for 5 consecutive days followed by 2 rest days for 3 weeks; assay type: organism-based; conditions: in vivo, 504 h, dose 10-20 mg/kg
[15] = test system: RD; assay: Downregulation of H3K9me2 expression in human RD cells at 5 uM incubated for 6 days by Western blotting analysis; assay type: functional, cell-based; conditions: time 6.0 day
[16] = test system: RD; assay: Cytotoxicity against human RD cells assessed as reduction in cell viability incubated for 72 hrs by MTT assay; assay type: functional
[17] = Clearance in Sprague-Dawley rat at 10 mg/kg, iv administered for 12 hrs by HPLC analysis; assay type: ADME, organism-based; conditions: in vivo
[18] = Cmax in Sprague-Dawley rat at 30 mg/kg, po administered for 24 hrs by HPLC analysis; assay type: ADME, organism-based; parameters: time 24 hrs, dose 30 mg/kg, route po; conditions: in vivo
[19] = test system: SW982; assay: Antiproliferative activity against human SW982 cells assessed as reduction in clone formation rate at 5 uM for 1 to 2 weeks with fresh medium replacement for every 2 to 3 days by crystal violet staining based microscopic analysis; assay type: functional, cell-based; conditions: time 1-2 weeks
[20] = test system: Mus musculus; assay: Downregulation of H3K27me3 expression in tumor tissue of BALB/c nude mouse xenografted with human RD cells at 20 mg/kg, ip administered for 5 consecutive days followed by 2 rest days for 3 weeks by Western blotting analysis; assay type: functional, organism-based
[21] = Tmax in Sprague-Dawley rat at 30 mg/kg, po administered for 24 hrs by HPLC analysis; assay type: ADME, organism-based; conditions: in vivo
[22] = test system: RD; assay: Antitumor activity against human RD-EV cells xenografted in BALB/c nude mouse assessed as tumor growth inhibition at 20 mg/kg, ip administered for 15 days; assay type: functional; conditions: 360 h, time 15 day, read-out: TGI
[23] = test system: Mus musculus; assay: Downregulation of H3K9me2 expression in tumor tissue of BALB/c nude mouse xenografted with human RD cells at 20 mg/kg, ip administered for 5 consecutive days followed by 2 rest days for 3 weeks by Western blotting analysis; assay type: functional, organism-based
[24] = Cytotoxicity against human L02 cells assessed as reduction in cell viability incubated for 72 hrs by MTT assay; assay type: toxicity, cell-based
[25] = test system: RD; assay: Antitumor activity against human RD cells xenografted in BALB/c nude mouse assessed as suppression of tumor growth administered intraperitoneally for 5 consecutive days followed by 2 rest days for 3 weeks; conditions: dose 10-20 mg/kg, route ip
[26] = test system: RD; assay: Downregulation of H3K79me1 expression in human RD cells at 5 uM incubated for 6 days by immunoblotting analysis; assay type: functional, cell-based; conditions: time 6.0 day
[27] = test system: RD; assay: Antitumor activity against EZH2 and G9a knockdown human RD cells xenografted in BALB/c nude mouse assessed as tumor growth inhibition at 20 mg/kg, ip administered for 15 days; assay type: functional, organism-based; conditions: time 15.0 day
[28] = Toxicity in BALB/c nude mouse xenografted with human RD cells assessed as effect on lung viscera index at 10 to 20 mg/kg, ip administered for 5 consecutive days followed by 2 rest days for 3 weeks; assay type: organism-based; conditions: in vivo, 504 h, dose 10-20 mg/kg
[29] = target: T1, Histone-lysine N-methyltransferase EZH1 (Homo sapiens) (UniProt Q92800); assay: Inhibition of human EZH1 using SAM as substrate at 10 uM by time-resolved fluorescence assay relative to control
T1 sequence (whole entry): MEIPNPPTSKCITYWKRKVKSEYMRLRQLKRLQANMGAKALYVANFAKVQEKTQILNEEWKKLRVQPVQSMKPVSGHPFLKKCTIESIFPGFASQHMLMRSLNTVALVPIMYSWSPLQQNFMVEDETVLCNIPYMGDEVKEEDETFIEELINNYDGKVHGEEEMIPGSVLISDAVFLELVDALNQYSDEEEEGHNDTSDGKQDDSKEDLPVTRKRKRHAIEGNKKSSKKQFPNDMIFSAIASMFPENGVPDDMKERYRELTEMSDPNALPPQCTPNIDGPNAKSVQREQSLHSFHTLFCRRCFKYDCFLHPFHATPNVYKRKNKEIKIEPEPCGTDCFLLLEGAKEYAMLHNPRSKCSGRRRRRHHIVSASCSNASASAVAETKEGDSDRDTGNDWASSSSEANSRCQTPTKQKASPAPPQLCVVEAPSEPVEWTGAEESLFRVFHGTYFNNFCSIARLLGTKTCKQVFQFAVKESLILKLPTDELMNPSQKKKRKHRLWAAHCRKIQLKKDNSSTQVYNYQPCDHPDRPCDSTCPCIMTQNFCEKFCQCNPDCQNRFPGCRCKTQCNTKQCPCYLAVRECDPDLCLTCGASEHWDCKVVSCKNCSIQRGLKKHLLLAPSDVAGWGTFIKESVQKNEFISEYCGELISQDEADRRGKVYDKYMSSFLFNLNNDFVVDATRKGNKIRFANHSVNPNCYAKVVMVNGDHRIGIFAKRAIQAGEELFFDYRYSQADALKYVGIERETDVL

COc1cc2c(NCc3c(C)cc(C)[nH]c3=O)nc(N3CCC(F)(F)CC3)nc2cc1OCCCN1CCCC1
fraction unbound [1]: 0.186
AUC(0-inf) [2]: 11400 ng·h/mL
Activity [3]: Non-Toxic
inhibition [4]: -5.87%
Activity [5]: Active
inhibition [6]: -5.18%
CC50 at 72 h [7]: > 100 µM
Vc [8]: 17518 mL/kg
Activity [9]: inactive
Vd [10]: 4.54 L/kg
AUC(0-t) at 12 h [11]: 1940 ng·h/mL
Activity [12]: Non-Toxic
Activity [13]: Dose-Dependent Effect
Activity [14]: Non-Toxic
Activity [15]: Active
CC50 [16]: 19.6 µM
CL [17]: 908.7 mL/h/kg
Cmax [18]: 3180 ng/mL
Activity [19]: Active
Activity [20]: Active
Tmax [21]: 41.4 min
inhibition in vivo at 20 mg/kg [22]: 55.4%
Activity [23]: Active
CC50 at 72 h [24]: > 100 µM
Activity [25]: Dose-Dependent Effect
Activity [26]: inactive
inhibition [27]: inactive
Activity [28]: Non-Toxic
inhibition [29]: 89.2%
